Measured values: US12522569B2, “Substituted benzimidazole derivative and use thereof” (Chengdu FANXI Biopharma Co., Ltd., priority 2020, dated 2026)

Columns and labels:
Assay type in all cases: cell-based
hPPARα (LBD) = target: T1, hPPARα (LBD) (Homo sapiens, UniProt Q07869); assay: GAL4-hPPARα (LBD) luciferase reporter transactivation in CV-1 cells; conditions: about 40 hours, relative to GW-590735 as 100%, read-out: PPAR activities EC50 PPARα
T1 construct: The receptor expression plasmid (pSG5-GAL4-hPPARα or γ or δ (LBD)); GAL4 (fusion partner); expressed in transfected cells; host or cells: CV-1 cells (ATCC)
T1 sequence (Q07869 239-466 limits assumed): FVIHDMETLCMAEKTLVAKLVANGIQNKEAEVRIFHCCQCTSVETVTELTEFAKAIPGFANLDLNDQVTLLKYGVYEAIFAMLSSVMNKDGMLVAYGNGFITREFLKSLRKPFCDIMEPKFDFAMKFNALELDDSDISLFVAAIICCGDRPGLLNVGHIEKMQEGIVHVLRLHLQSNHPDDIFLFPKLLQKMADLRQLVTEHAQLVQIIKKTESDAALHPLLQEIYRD
Procedure: (§1) The PPARδ activation effect of the compounds of the present invention was determined as follows (measurement of the PPAR activation effect of the test compounds (compounds in the examples)).
(§2) The receptor expression plasmid (pSG5-GAL4-hPPARα or γ or δ (LBD)), luciferase expression plasmid (pUC8-MH100×4-TK-Luc) and β-galactosidase expression plasmid (pCMX-β-GAL) (Kliewer, S. A. et. al., (1992) Nature, 358:771-774) were introduced into CV-1 cells (ATCC).
(§3) After gene introduction using the lipofection reagent DMRIE-C or Lipofectamin 2000 (Invitrogen), the cells were cultured in the presence of the test compound for 42 hours. Lysed cells were tested for luciferase activity and β-GAL activity.
(§4) The following methods were used to determine the PPAR activation effect of the tested compounds (compounds in the examples)
(§5) Receptor expression plasmid (pSG5-GAL4-hPPARα, 7 or 6 (LBD)), luciferase expression plasmid (pUC8-MH100×4-TK-Luc) and β-Galactosidase expression plasmid (pCMX-β-GAL) (Kilewer, S. A. et. al., (1992) Nature, 358: 771-774) were introduced into CV-1 cells (ATCC). After gene introduction using a lipofection reagent (Lipofectamine 2000 (Invitrogen)), the cells were cultured in the presence of the test compounds for about 40 hours.

hPPARγ (LBD) = target: T2, hPPARγ (LBD) (Homo sapiens, UniProt P37231); assay: GAL4-hPPARγ (LBD) luciferase reporter transactivation in CV-1 cells; conditions: about 40 hours, relative to Rosiglitazone as 100%, read-out: PPAR activities EC50 PPARγ
T2 construct: The receptor expression plasmid (pSG5-GAL4-hPPARα or γ or δ (LBD)); GAL4 (fusion partner); expressed in transfected cells; host or cells: CV-1 cells (ATCC)
T2 sequence (P37231 238-503 limits assumed): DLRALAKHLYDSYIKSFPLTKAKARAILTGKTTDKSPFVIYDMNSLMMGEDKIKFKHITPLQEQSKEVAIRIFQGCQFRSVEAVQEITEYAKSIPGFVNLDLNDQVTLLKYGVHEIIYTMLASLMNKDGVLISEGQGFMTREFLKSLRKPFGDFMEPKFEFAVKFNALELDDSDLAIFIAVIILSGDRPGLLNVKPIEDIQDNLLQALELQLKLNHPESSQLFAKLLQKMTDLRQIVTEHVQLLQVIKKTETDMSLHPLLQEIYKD
Procedure: as §1, §2, §3, §4, §5

hPPARδ (LBD) = target: T3, hPPARδ (LBD) (Homo sapiens, UniProt Q03181); assay: GAL4-hPPARδ (LBD) luciferase reporter transactivation in CV-1 cells; conditions: about 40 hours, relative to GW-501516 as 100%, read-out: PPAR activities EC50 PPARδ
T3 construct: The receptor expression plasmid (pSG5-GAL4-hPPARα or γ or δ (LBD)); GAL4 (fusion partner); expressed in transfected cells; host or cells: CV-1 cells (ATCC)
T3 sequence (Q03181 211-439 limits assumed): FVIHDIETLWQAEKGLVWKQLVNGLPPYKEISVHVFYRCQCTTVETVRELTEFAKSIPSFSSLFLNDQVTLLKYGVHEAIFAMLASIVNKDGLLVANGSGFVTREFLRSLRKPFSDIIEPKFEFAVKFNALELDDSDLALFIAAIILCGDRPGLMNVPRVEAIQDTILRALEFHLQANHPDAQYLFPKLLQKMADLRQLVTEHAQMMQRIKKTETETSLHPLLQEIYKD
Procedure: as §1, §2, §3, §4, §5

Row | SMILES | EC50 (hPPARα (LBD)) | EC50 (hPPARγ (LBD)) | EC50 (hPPARδ (LBD))
1 | CCc1cc(COc2ccccc2Cn2c(CCCN3CCCC3)nc3cc(Br)ccc32)ccc1OCC(=O)O [Compound 15, 2-(4-((2-((5-Bromo-2-(3-(pyrrolidin-1-yl)propyl)-1H-benzo[d]imidazol-1-yl)methyl)phenoxy)methyl)-2-ethylphenoxy)acetic acid] | 2110 nM | 9110 nM | 6560 nM
2 | CCc1cc(COc2ccccc2Cn2c(CN3CCCC3)nc3cc(Br)ccc32)ccc1OCC(=O)O [Compound 50] | 3990 nM | 2040 nM | 803 nM

The remaining lines, values ahead:

Row | EC50 (hPPARα (LBD)) | EC50 (hPPARγ (LBD)) | EC50 (hPPARδ (LBD)) | SMILES
3 | 3050 nM | 15400 nM | 41800 nM | CCc1cc(COc2ccccc2Cn2c(CCCN3CCCC3)nc3cc(Br)ccc32)ccc1CCC(=O)O [Compound 17, 3-(4-((2-((5-Bromo-2-(3-(pyrrolidin-1-yl)propyl)-1H-benzo[d]imidazol-1-yl)methyl)-phenoxy)methyl)-2-ethylphenyl)propanoic acid]
4 | 3420 nM | 672 nM | 142 nM | CCc1cc(COc2ccccc2Cn2c(CN3CCCC3)nc3cc(Br)ccc32)ccc1CCC(=O)O [Compound 14]
5 | 104 nM | 186 nM | 36.5 nM | CCc1cc(COc2ccccc2Cn2c(CCc3ccc(Cl)cc3Cl)nc3cc(Br)ccc32)ccc1CCC(=O)O [Compound 3, 3-(4-((2-((5-Bromo-2-(2.4-dichlorophenethyl)-1H-benzo[d]imidazol-1-yl)methyl)phenoxy)methyl)-2-ethylphenyl)propanoic acid]
